Legend:
[1] = Human clinical trials of BTK-I: adverse events in the overall safety population of 323 patients; assay type: in vivo
Procedure: (§1) (Mato A., et al., “Toxicities and Outcomes of 616 Ibrutinib-Treated Patients in the United States: A Real-World Analysis”, Haematologica, 2018, 103(5), 874-879.) Between Mar. 21, 2019 and Sep. 27, 2020, across 7 dose levels ranging from 25 mg once daily (QD) to 300 mg QD in 323 patients, the only treatment-emergent adverse events regardless of attribution or grade seen in ≥10% of patients (n=323) were fatigue (n=65, 20%), diarrhea (n=55, 17%), and contusion (n=42, 13%). In 121 efficacy-evaluable cBTKi-treated chronic lymphocytic leukemia (CLL) patients (median prior lines=4), overall response rate (ORR) was 62% (95% CI: 53-71), rising to 84% in patients followed for ≥10 months.
Atrial arrythmias and hemorrhage are two important AEs associated with covalent BTK inhibitor discontinuation. […] Only 1 patient experienced a grade 3 hemorrhage, a subarachnoid bleed sustained during a bicycle accident. In total, 18 patients had discontinued a prior BTK inhibitor for cardiovascular toxicity (in 15) or hemorrhage (3). None experienced recurrence of these events on BTK-I.

TMD8 BTK C481S cells = assay: In vivo mouse xenograft study, TMD8 BTK C481S; set-up: species or system mice; conditions: BTK-I BID alone; BTK C481S driven TMD8 (DLBCL) xenograft
Procedure: In all studies, test articles are administered alone and in combination, following different dosing regimens.
Human TMD8 BTK WT, TMD8 BTK C481S or REC-1 cells are injected subcutaneously in the right flank of mice. When tumors reach a mean volume between 150 mm^3 and 400 mm^3, mice are randomized based on their tumor volumes. Mice are next dosed for 14 to 23 days depending on the study design. The potencies of the compounds stand-alone or in combination on the inhibition of the tumor growth are assessed based on the tumor volume changes and weights after collection at the end of the study. Additionally, in the TMD8 studies, the plasma concentrations of test articles are measured at multiple time points after the last dose.

[2] = tested on: CLL/SLL, MCL, Waldenstrom's macroglobulinemia and follicular lymphoma patients; assay: Human clinical trials of BTK-I: overall response rate in efficacy-evaluable patients; assay type: in vivo
Procedure: as §1

[3] = tested on: Waldenstrom's macroglobulinemia; assay: Phase 1/2 clinical study, Waldenstrom's macroglobulinemia patients; assay type: in vivo, human
Excerpt: The study is an open-label, multi-center study of oral BTK-I to evaluate safety and efficacy as monotherapy and as part of combination therapy in patients with CLL/SLL and NHL who have failed or are intolerant to standard of care. This study includes monotherapy as well as combination treatment parts. The monotherapy part includes Phase 1 dose escalation and dose expansion as well as Phase 2. The combination therapy part is a Phase 1b (safety assessment and expansion) of BTK-I in combination with venetoclax, with or without anti-CD20 therapy. Phase 1 dose escalation will proceed prior to start of Phase 1b or Phase 2. Once a recommended Phase 2 dose (RP2D) is identified in Phase 1, enrollment can commence to the Phase 1b combination therapies and Phase 2 monotherapy cohorts.
The primary objectives of the Phase 1 Dose Escalation and Expansion part of the study is to determine the maximum tolerated dose (MTD)/RP2D of oral BTK-I in patients with previously treated CLL/SLL and B-cell NHL.
Patients are enrolled with histologically confirmed CLL/SLL or B-cell NHL who have failed or are intolerant to at least two prior standard of care regimens given in combination or sequentially or have received at least one prior BTK inhibitor-containing regimen when BTK inhibitor is approved in first line.
BTK-I is administered in oral tablet form. Dose escalation will follow a 3+3 design starting with a 25 mg QD dose (followed by 50 mg QD (dose level cohort 2), 100 mg QD (dose level cohort 3), 150 mg QD (dose level cohort 4), 200 mg QD (dose level cohort 5), 250 mg QD (dose level cohort 6), and 300 mg QD (dose level cohort 7)). Cycle length will be 28 days. The drug limiting toxicity (DLT) period will be 28 days, commencing with the first dose of BTK-I.
The primary objective of the Phase 2 is to assess the primary anti-tumor activity of BTK-I based on overall response rate (ORR) and as assessed by the Independent Review Committee.
At the RP2D up to ˜600 patients with CLL/SLL or NHL will be enrolled to one of the following cohorts: • Cohort 1: Non-blastoid MCL patients treated with a prior BTK-inhibitor. • Cohort 2: CLL/SLL patients treated with 2 or more prior regimens, including a BTK inhibitor-containing regimen. • Cohort 3: CLL/SLL patients with no prior therapy. • Cohort 4: CLL/SLL patients treated with prior therapy, BTK inhibitor naive. • Cohort 5: WM patients treated with a prior BTK inhibitor containing regimen. • Cohort 6: MZL patients treated with a prior BTK inhibitor containing regimen. • Cohort 7: (Not otherwise specified) defined as CLL/SLL or NHL not otherwise specified in Cohorts 1 through 6, inclusive of CLL/SLL or NHL, Richter's transformation, blastoid MCL, and patients with history of CNS involvement or primary CNS lymphoma.
Dosing during Phase 2 will be at the RP2D of 200 mg QD. The cycle length will be 28 days. BTK-I will be administered to the Phase 2 patients in oral tablet form at the RP2D. The dose (and schedule) chosen for Phase 2 may be changed by the SRC based on emerging data (e.g., PK, safety, and/or efficacy) as long as the new dose is not greater than the highest dose that has a DLT <33% and is determined to be safe by the SRC in Phase 1. If the RP2D is changed based on emerging data, patients enrolled to Phase 2 at a different dose may have the dose changed to the new dose.

[4] = 25 mg QD to 300 mg QD, n=323, regardless of attribution or grade
[5] = of 13 with prior covalent BTK inhibitor

## COc1ccc(F)cc1C(=O)NCc1ccc(-c2nn([C@@H](C)C(F)(F)F)c(N)c2C(N)=O)cc1 [BTK-I, (S)-5-amino-3-(4-((5-fluoro-2-methoxybenzamido)methyl)phenyl)-1-(1,1,1-trifluoropropane-2-yl)-1H-pyrazole-4-carboxamide]
[1]; [4]
  treatment-emergent adverse event contusion, patients: 13%
  treatment-emergent adverse event diarrhea, patients: 17%
  treatment-emergent adverse event fatigue, patients: 20%
[1]; 18 patients who had discontinued a prior BTK inhibitor for cardiovascular toxicity (15) or hemorrhage (3)
  recurrence of cardiovascular toxicity or hemorrhage on BTK-I: None
[1]; n=323 (in 5)
  permanent discontinuations for drug-related adverse events, patients: 1.5%
[1]; n=323 (in 7)
  dose reductions for drug-related adverse events, patients: 2.2%
[1]; n=323 (in 26)
  dose interruptions for drug-related adverse events, patients: 8.0%
[1]; overall safety population of 323 patients, 2 patients, both grade 2, considered unrelated
  atrial fibrillation/flutter, patients: 0.6%
[1]; overall safety population of 323 patients, subarachnoid bleed during a bicycle accident
  grade 3 hemorrhage: 1 patient
TMD8 BTK C481S cells
  inhibition of xenograft tumor growth: potently inhibited the growth
[2]; 52 efficacy-evaluable cBTKi-treated MCL patients, 95% CI: 38-66
  ORR: 52%
[2]; 121 efficacy-evaluable cBTKi-treated CLL patients, median prior lines=4, 95% CI: 53-71
  overall response rate (ORR): 62%
[2]; CLL/SLL patients with BTK C481-mutant disease (17/24)
  ORR: 71%
[2]; CLL/SLL patients with BTK-wildtype disease (43/65)
  ORR: 66%
[2]; CLL/SLL patients with cBTKi intolerance (22/42)
  ORR: 52%
[2]; CLL/SLL patients with prior cBTKi resistance (53/79)
  ORR: 67%
[2]; Waldenstrom's macroglobulinemia (WM), n=19
  ORR: 68%
[2]; cBTKi-treated CLL patients followed for ≥10 months
  overall response rate (ORR): 84%
[2]; follicular lymphoma (FL), n=8
  ORR: 50%
[2]; of 117 responding CLL or MCL patients
  responding patients who remain progression-free: all but 8
[3]; 13 patients with prior covalent BTK inhibitor
  ORR: 69%
[3]; 19 efficacy-evaluable WM patients
  ORR: 68%
[3]; median follow-up 4.6 months
  WM responders ongoing: Ten of 13
[3]; [5]
  MR, patients: 4
  PR, patients: 5
[3]; of 19 efficacy-evaluable
  PR, patients: 9
  minor response (MR), patients: 4
